Converted amounts (≈) assume the structure as drawn.
Details: for aqueous solubility: pH 6.8

Compound | MDR1-MDCK efflux ratio | intrinsic clearance, human liver microsomes [mL/min/kg] | intrinsic clearance, rat liver microsomes [mL/min/kg] | aqueous solubility [µg/mL] | fraction unbound, human plasma | fraction unbound, rat plasma
CCc1cc2c(N(C)CCO)ncnc2s1 | 0.676 | 73.6 | 139 | 40.9 (≈ 172 µM) | – | –
N#CC1(NC(=O)c2ccc3c(c2)OCO3)CCCC1 | – | ≤ 4.74 | 64.9 | – | – | –
CN(Cc1cccc(C#N)c1)c1cnc2ccccc2n1 | 0.442 | 75.3 | 477 | 11.8 (≈ 43.2 µM) | – | –
Cc1nccc(-c2cccc(NCC(=O)Nc3ccc(F)cc3)c2)n1 | – | 39.1 | 304 | – | – | –
Cc1ccc2[nH]c(CNC(=O)c3ncoc3C)nc2c1C | 2.39 | 13.6 | 244 | – | – | –
Cc1csc(Cc2nc(-c3ccc(O)cc3)no2)n1 | 0.531 | 15.1 | 288 | – | – | –
CN(CCCC1CCCC1)Cc1cc(=O)[nH]c(=O)[nH]1 | 0.839 | 7.57 | 165 | – | – | –
Cn1cc(-c2cccc3c(C(N)=O)cccc23)cn1 | 1.17 | ≤ 4.74 | 42.6 | – | – | –
Cc1cc(C)c(-c2csc(CC(N)=O)n2)cc1C | 0.831 | – | – | – | – | –
O=C(Nc1ccc2sccc2c1)N1CCCN(C(=O)Oc2ccccc2)CC1 | 1.31 | 78.3 | 765 | 37.9 (≈ 95.7 µM) | – | –
O=C(Nc1nncs1)c1cccnc1 | 1.04 | ≤ 4.74 | ≤ 10.7 | 44.3 (≈ 215 µM) | – | –
CNC(=O)Cc1noc(-c2ccc3ncccc3c2)n1 | – | ≤ 4.74 | 21.8 | – | – | –
N#CCNC(=O)c1ccc(C#N)c(Cl)c1 | – | ≤ 4.74 | ≤ 10.7 | – | – | –
O=C(CN1CCCC1=O)NCC1(CO)CCCC1 | 2.26 | ≤ 4.74 | ≤ 10.7 | – | – | –
Cn1cc(Nc2nc(N)nc(-c3cccc(-n4ccc5cc(C6CC6)cc(F)c5c4=O)c3CO)n2)cn1 | 24.3 | ≤ 4.74 | 37.9 | – | 0.0709 | 0.0381
CC(C)n1nnnc1-c1ccc(N)cc1F | 0.63 | ≤ 4.74 | 40.2 | 23.5 (≈ 106 µM) | – | –
CC(=O)N1CCC[C@H]1C(=O)Nc1cccc(OC(F)F)c1 | 1.42 | ≤ 4.74 | 31.4 | 47 (≈ 157 µM) | – | –
Cc1nccc(-c2cccc(-n3ccnc3C(C)C)c2)n1 | 1.45 | 35.4 | 500 | 40.4 (≈ 145 µM) | – | –
Cc1nccc(-c2cccc(NCC(=O)NCC(=O)N3CCCC3)c2)n1 | 43.4 | ≤ 4.74 | 16.2 | 69.5 (≈ 197 µM) | – | –
CCc1nc2ccccc2n1CC(=O)Nc1cnc2ccccc2c1 | – | 21.3 | 188 | – | – | –

Compound | MDR1-MDCK efflux ratio | intrinsic clearance, human liver microsomes [mL/min/kg] | intrinsic clearance, rat liver microsomes [mL/min/kg] | aqueous solubility [µg/mL] | fraction unbound, human plasma | fraction unbound, rat plasma
N#CC1(C(=O)NCC2(C3CC3)CC2)CCCCC1 | 0.713 | 18.9 | 1080 | – | – | –
Cc1ccc(C(=O)N(C)Cc2ccccn2)c(O)c1 | – | ≤ 4.74 | 479 | – | – | –
CCN(CC)CC(=O)N1CCC(n2c(=O)[nH]c3ccccc32)CC1 | – | ≤ 4.74 | 23.5 | 48.9 (≈ 148 µM) | – | –
Cc1cc(C)n(-c2ccc(C(=O)NCc3cccnc3)cc2)n1 | 4.95 | ≤ 4.74 | 94.4 | 45.4 (≈ 148 µM) | – | –
O=C1NCCSc2c1sc1ccc(O)cc21 | – | 48.8 | 95.1 | – | 0.0779 | 0.146
CCCc1nc(N2CCc3ccccc3C2)ncc1C(=O)O | 0.725 | ≤ 4.74 | 39.3 | 51.4 (≈ 173 µM) | – | –
O=C(Nc1nc2ccccc2[nH]1)C1CC(=O)N(c2cccc(C(F)(F)F)c2)C1 (stereo not drawn) | – | – | – | 0.82 (≈ 2.11 µM) | – | –
Cc1noc(OCC(=O)N2CCCCCC2)n1 | 1.01 | ≤ 4.74 | ≤ 10.7 | 50.2 (≈ 210 µM) | – | –
O=c1[nH]c2cnccc2n1Cc1ccccc1 | 1.55 | ≤ 4.74 | 47.9 | 31.5 (≈ 140 µM) | – | –
CC(=O)c1c(C)c2cnc(Nc3ccc(N4CCNCC4)cn3)nc2n(C2CCCC2)c1=O | 63.1 | 12.8 | 34.7 | 46.2 (≈ 103 µM) | – | –
COc1ccc(C)cc1S(=O)(=O)NCCC(=O)Nc1ccccc1C | 16.9 | 92 | 2150 | – | – | –
COc1ccc(CN(C)c2ncncc2Br)cc1O | – | 25.9 | 211 | 55.6 (≈ 172 µM) | – | –
Cc1cc(NC(=O)CCc2c(C)nn(C)c2C)no1 | 3.86 | ≤ 4.74 | 45 | 50.7 (≈ 193 µM) | – | –
NC(=O)c1sc2cc(F)ccc2c1Cl | – | – | – | 0.5 (≈ 2.18 µM) | – | –
O=C(NCc1ncc(-c2ccccc2)o1)C1CCCCC1 | 0.57 | 41.9 | 668 | 75.9 (≈ 267 µM) | – | –
COc1cc(CN2CCC(C(=O)N3CCOCC3)CC2)ccc1C | 2.9 | 9.42 | 228 | – | – | –
CNC(=O)CN1CCCN(C(=O)c2c(C)nn(-c3ccccc3)c2Cl)CC1 | 82.1 | ≤ 4.74 | 87.7 | 49.9 (≈ 128 µM) | – | –
Cc1cc(Nc2ccc(F)cn2)cc(C2CCN(C(=O)COc3ccccc3)C2)n1 (stereo not drawn) | 15.5 | 106 | 664 | – | – | –
Cc1cccc(N2CCN(CCCCNC(=O)c3c(F)cccc3F)CC2)c1 | 1.22 | 76.3 | 510 | – | – | –
O=S(=O)(c1cccnc1)N1CCC2(Cc3ccccc3C2)C1 | 0.627 | 91.2 | 5070 | – | – | –

Compound | MDR1-MDCK efflux ratio | intrinsic clearance, human liver microsomes [mL/min/kg] | intrinsic clearance, rat liver microsomes [mL/min/kg] | aqueous solubility [µg/mL] | fraction unbound, human plasma | fraction unbound, rat plasma
C[C@@H]1CCN(C(=O)CC#N)C[C@@H]1N(C)c1ncnc2[nH]ccc12 | 41.1 | ≤ 4.74 | 120 | 41.2 (≈ 132 µM) | 0.981 | 0.559
Cc1ccc(OCc2nc3cc(N)ccc3[nH]2)cc1 | – | ≤ 4.74 | 49.1 | 16.8 (≈ 66.1 µM) | – | –
O=C(CCn1cncn1)N(CC#Cc1ccccc1)C1CCCC1 | 1.98 | 263 | 1350 | 22.5 (≈ 69.7 µM) | – | –
Cc1cc(C(=O)N2CCC(C(=O)c3ccnn3C)CC2)sc1C | 0.723 | 36.7 | 957 | – | – | –
Cc1cc(Nc2cc(N)ncn2)c(=O)n2c1C(=O)NC21CCCCC1 | 25.5 | ≤ 4.74 | 24.8 | – | – | –
O=C(Nc1cccc2ncccc12)[C@H]1CCCN(S(=O)(=O)c2ccc(F)cc2)C1 | – | 35.2 | 698 | – | – | –
CSc1ccc(C(=O)Nc2cccc(C(=O)NCC(C)C)c2)cc1 | 1.59 | 119 | 2660 | – | – | –
O=C(NCC1CC1)c1cncn1-c1ccc(F)cc1 | 1.26 | ≤ 4.74 | ≤ 10.7 | 52.2 (≈ 201 µM) | – | –
Cc1csc(CN(C)c2ccnc(N(C)C)n2)n1 | 0.578 | 11.8 | 546 | 45.8 (≈ 174 µM) | – | –
CN(C)CCNc1c2c(c(C#N)c3nc4ccccc4n13)CCCC2 | 2.57 | 24 | 270 | 36 (≈ 108 µM) | – | –
C=CC(=O)N1CCC[C@@H](n2nc(-c3cccc(C(=O)Nc4ccc(C(C)C)c(C)c4)c3)c3c(N)ncnc32)C1 | 34.9 | – | – | 0.17 (≈ 0.325 µM) | – | –
Cc1nn(C)c(C)c1NC(=O)CN1CCC2(CCCCC2)CC1 | 1.6 | 12.4 | 497 | 87.3 (≈ 274 µM) | – | –
O=C(Cc1ccc2c(c1)OCCO2)NC1CCCCCC1 | 0.619 | 194 | 927 | 42.1 (≈ 146 µM) | – | –
CN(C[C@@H]1COCCO1)S(=O)(=O)Nc1ccc2ccc3ncc(-c4cnn(C)c4)cc3c(=O)c2c1 | 15.5 | 44.3 | 219 | 3.36 (≈ 6.78 µM) | – | –
COC(=O)CCCNC(=O)CN1CCC(C(=O)c2ccc(C)cc2C)CC1 | 3.29 | 645 | 1910 | – | – | –
CC1(C)[C@@H]2C[C@H]1[C@@]1(O)[C@@H](C2)Oc2c(ccc(O)c2C(=O)NCCNS(C)(=O)=O)[C@@H]1O | 91 | 29.3 | 134 | – | – | –
O=C(Nc1nc2ccccc2[nH]1)C1CCCO1 (stereo not drawn) | – | – | – | 35.5 (≈ 154 µM) | – | –
Cc1ccccc1OCCn1c(N)nc2ccccc21 | 1.52 | 19.1 | 1760 | 40.6 (≈ 152 µM) | – | –
